* marks the point of attachment. Cbz = O=C(OCc1ccccc1)*; CH2F = FC*
Tests used:
CD3 on lymphocytes = test: aCD3 FACS analysis of cell and cell surface epitope integrity; format: cell-based, human; conditions: EDTA blood, test solution 5% v/v DMPA, RT 0 h, 24 h, 72 h
Experimental: FIG. 5: Fluorescence activated cell sorting (aCD3 FACS) analysis of sample aliquots from blood collected from one donor into EDTA tubes. Blood aliquots were subjected to FACS using PE-conjugated anti-CD3 antibody from samples that were not incubated after blood collection (0 h) and samples after one and three days of incubation at RT (24 h, 72 h). The number of fluorescence-labelled cells was counted and the intensity of the fluorescence signal per event was quantified. Intensity (x-axis) and number of fluorescence signals (y-axis) are shown as histograms. Thresholds were defined to differentiate unspecific weak fluorescence signals (−) from stronger specific fluorescence signals caused by specifically bound anti-CD3 antibody to cells (+). […]
Cell and cell surface epitope integrity was analysed by fluorescence activated cell sorting (FACS) using fluorescence conjugated anti-CD3 antibody
In addition, cell and cell surface epitope integrity was analysed in the stabilized samples by fluorescence activated cell sorting (FACS). In detail, the presence and accessibility of cell surface proteins was analysed by binding of fluorescence conjugated antibody (PE-labelled anti-CD3) directed against cellular epitope CD3 that is specific for lymphocytes, while other white blood cell subtypes (monocytes, neutrophilic granulocytes) are CD3 negative.

blood samples = test: Inspection of plasma for hemolysis; format: cell-based, human; conditions: Example 4: 2.5% and 5% DMPA with caspase inhibitor
From the text: The focus of the analysis was the stabilization of the extracellular nucleic acid population as determined by analyzing the increase of 18S rDNA. Shown is the increase of DNA relative to time point 0 with 2.5%, 5% and 7.5% N,N dimethylpropanamide (DMPA) or 5% DMAA with caspase inhibitor (fold change) using different amplicon lengths of 18SrRNA gene. Bars indicate the mean of the triplicate samples per condition and test time point. […] Thus, a stabilization of the extracellular nucleic acid population was achieved. Furthermore, the obtained plasma was inspected in order to analyse whether hemolysis occurred.

18S ribosomal DNA = test: 18S rDNA increase in plasma of stored blood (qPCR, 66 bp and 500 bp amplicons); format: cell-based, human; conditions: for Released DNA (18S rDNA) after storage: 3 and 6 days RT, vs unstabilized EDTA blood
Experimental: Blood obtained from donors was collected into 10 ml K2 EDTA tubes (BD). 4.5 ml of the respectively collected blood was mixed with 0.9 ml of different stabilization solutions (see below examples on the details of the tested stabilization solutions).
All stabilized blood samples were set up in triplicates per condition and test time point. At time point 0 (reference), immediately after mixing the stabilization solution and blood, plasma was generated and the circulating extracellular DNA was extracted. The residual stabilized blood sample was stored for three days and six days at room temperature.
Plasma was generated from the stabilized and unstabilized (EDTA) blood samples by inverting the blood containing tubes for four times. Then, the tubes were centrifuged for 10 minutes at 1900×g at 4° C. 2.5 ml of the plasma fraction was transferred into a fresh 15 ml falcon tube and centrifuged for 10 minutes at 16.000×g at 4° C. 2 ml of the respectively cleared plasma was used for extracellular nucleic acid isolation using the QIAamp circulating nucleic acid kit (QIAGEN) according to the manufacturer's instructions.
The isolated extracellular DNA was analyzed using two different qPCR assays, targeting different fragment lengths of the 18S ribosomal DNA:
Cycle threshholds of the individual samples were translated into amount of gDNA in the eluate, according to a gDNA standard curve. The gDNA amount of the storage time points was compared to the time zero gDNA level from the same donor and is shown as fold increase in the figures. Especially the increase of the 500 bp fragment in the plasma fraction of the blood sample after storage is an indication for a lysis/destruction of white blood cells. Thus, the lower the amount of released 500 bp DNA, the better the performance of the stabilization method.

[1] = tested on: FOS, IL1B, IL8 and TP53 transcripts; test: Transcript level stabilisation in stored blood, real time RT-PCR; format: cell-based, human; conditions: blood incubated at RT for 0, 24 and 72 hours; DMPA 5% v/v final in EDTA blood, 5xMOPS pH5.5
From the text: A test system and study setup was established that allows the identification of reagent compositions that have gene transcript stabilisation capabilities, as indicated by constant levels of transcripts from selected genes (c-fos, IL-1beta, IL-8, p53). These transcripts were identified in prior studies as very unstable transcripts during storage, which are induced or down regulated (gains and losses of transcripts) within minutes after blood collection and were therefore chosen as “worst case” markers for screening purposes.
Blood was collected from multiple donors into replicate EDTA blood tubes (BD, [−] control of sample stabilisation) and PAXgene Blood RNA Tubes (PreAnalytiX) serving as [+] control of sample stabilisation. PAXgene Blood RNA tubes contain a composition (see also background of the invention) that lysis cells and thereby “freeze” the gene transcription profile. PAXgene Blood RNA tubes are for stabilizing blood for gene expression analysis. One aim was to find stabilization method that not based on cell lysis but achieves the same or similar performance as the PAXgene Blood RNA tubes in transcript level stabilization. […]
Transcript levels of all RNA samples were analysed by real time RT-PCR using monoplex assays of FOS, IL1B, IL8 and TP53, normalized to the amount of template input into the reaction. […]

PKC = conditions: cited from earlier work
calpain II = target: T1, calpain II (Homo sapiens, UniProt P17655); conditions: irreversible inhibitor; cited from earlier work
T1 sequence (P17655 1-700): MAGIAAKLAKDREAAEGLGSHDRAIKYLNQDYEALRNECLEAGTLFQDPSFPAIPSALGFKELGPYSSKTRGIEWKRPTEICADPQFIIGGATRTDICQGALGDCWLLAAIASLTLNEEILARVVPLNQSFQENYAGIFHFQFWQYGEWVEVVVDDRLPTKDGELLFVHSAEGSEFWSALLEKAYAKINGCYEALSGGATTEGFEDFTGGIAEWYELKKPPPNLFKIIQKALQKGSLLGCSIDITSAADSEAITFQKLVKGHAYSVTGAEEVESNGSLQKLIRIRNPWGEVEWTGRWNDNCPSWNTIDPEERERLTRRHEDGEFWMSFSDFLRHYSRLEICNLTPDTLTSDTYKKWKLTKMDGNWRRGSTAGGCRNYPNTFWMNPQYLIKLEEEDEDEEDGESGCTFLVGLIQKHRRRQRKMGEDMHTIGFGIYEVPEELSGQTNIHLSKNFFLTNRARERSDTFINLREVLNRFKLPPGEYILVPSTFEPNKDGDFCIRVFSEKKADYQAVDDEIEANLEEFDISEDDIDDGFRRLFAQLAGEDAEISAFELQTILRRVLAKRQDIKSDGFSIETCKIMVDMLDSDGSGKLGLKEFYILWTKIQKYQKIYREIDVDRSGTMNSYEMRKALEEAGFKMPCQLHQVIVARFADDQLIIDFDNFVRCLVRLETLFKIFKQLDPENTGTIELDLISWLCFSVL
T1 sequence (P04632 1-268 partner): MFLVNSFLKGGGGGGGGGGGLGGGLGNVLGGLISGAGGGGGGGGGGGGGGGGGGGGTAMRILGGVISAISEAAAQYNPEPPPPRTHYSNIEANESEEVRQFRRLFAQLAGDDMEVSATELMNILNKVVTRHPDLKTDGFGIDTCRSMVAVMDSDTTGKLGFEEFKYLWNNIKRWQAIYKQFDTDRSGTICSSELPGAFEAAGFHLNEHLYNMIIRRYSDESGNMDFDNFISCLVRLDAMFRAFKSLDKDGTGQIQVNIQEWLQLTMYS

cells = conditions: cited from earlier work

For CCC(=O)N(C)C [DMPA, N,N-dimethylpropanamide], the “Detection of lymphocytes by PE-conjugated anti-CD3 FACS” value (CD3 on lymphocytes) was “detectable for up to three days”, the “Hemolysis in plasma obtained from stabilized blood” value (blood samples) was “did not show signs of hemolysis” and the “Increase in 18S rDNA relative to time point 0” value (18S ribosomal DNA; Example 2: DMPA […], 2% or 2.5% without caspase inhibitor, 7.2 mg K2 EDTA/ml, RT up to 6 days, vs EDTA blood) was “significantly reduced increase in 18S rDNA”. For the same compound, the “Released DNA (18S rDNA) after storage” value (18S ribosomal DNA; Example 3: 2.5%, 5% or 7.5% (v/v) with 1 μM Quinoline-Val-Asp-CH2-OPH and K2 EDTA) was “significantly lower amounts of released DNA”, the “Released DNA (18S rDNA) after storage” value (18S ribosomal DNA; Example 4: 2.5%, 5% or 7.5% DMPA with 1 μM caspase inhibitor, 7.2 mg K2 EDTA/ml) was “significantly lower amounts of released DNA” and the “Increase in 18S rDNA relative to time point 0” value (18S ribosomal DNA; Example 5: DMPA in different concentrations with 1 μM caspase inhibitor, 7.2 mg K2 EDTA/ml) was “significantly reduced increase in 18S rDNA”. The “Relative transcript levels of FOS, IL1B, IL8 and TP53 (CT values) over storage” value [1] was “stabilised expression levels”.

In the case of O=c1c(O)c(-c2ccc(O)c(O)c2)oc2cc(O)cc(O)c12 [Quercetin], the “IC50 PKC” value (PKC) is given as 15 μg/ml. It strongly abrogated PI3K and Src kinases, mildly.

In the case of “Cbz-Leu-Leu-Tyr-CH2F [Calpain Inhibitor IV]”, the “k2 calpain II” value (calpain II) is listed as “= 28,900 M-1s-1). Also acts as an inhibitor of cathepsin L (k2 =”.

For Cbz-Val-Ala-Asp-CH2F, the Cytotoxicity (cells) is given as “no added cytotoxic effects”.
